ChEMBL document CHEMBL1201862, “PubChem BioAssay data set” (2004)
Values joined by “and” are separate entries in the source; they are usually repeats but may differ in a detail not shown here. Equal entries are not always repeated.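 Grown in 96-well plates, cells were treated for 48 hours with each compound at five concentrations. Insufficient inhibition: endpoint recorded as highest concentration tested. GI50: concentration for 50% inhibition of growth.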 Active and inactive are the calls of the source. Cut-off read from the data, not from the text of the source: active = GI50 up to about 1.1 µM and inactive = higher.

Key:
Assay in all cases: NCI-60 cell line screen, 48 h
A549 = test system: A549
CCRF-CEM = test system: CCRF-CEM
OVCAR-5 = test system: OVCAR-5
SR = test system: SR
Hs-578T = test system: Hs-578T
NCI-H226 = test system: NCI-H226
HT-29 = test system: HT-29
MOLT-4 = test system: MOLT-4
786-0 = test system: 786-0
NCI-H23 = test system: NCI-H23
RXF 393 = test system: RXF 393
DU-145 = test system: DU-145
KM12 = test system: KM12
LOX IMVI = test system: LOX IMVI
HCT-116 = test system: HCT-116
IGROV-1 = test system: IGROV-1
SF-268 = test system: SF-268
SK-OV-3 = test system: SK-OV-3
HL-60 = test system: HL-60
RPMI-8226 = test system: RPMI-8226

With `Cc1cccc(NC(=O)/C=C/c2ccc([N+](=O)[O-])cc2)c1` the GI50 (A549) was > 41.7 µM (inactive), the GI50 (CCRF-CEM) was 16 µM (inactive) and the GI50 (OVCAR-5) was > 42.6 µM (inactive). The GI50 (SR) was 11.7 µM (inactive), the GI50 (Hs-578T) was 48.1 µM (inactive) and the GI50 (NCI-H226) was > 46.7 µM (inactive). For the same molecule, the GI50 (HT-29) was 35 µM (inactive), the GI50 (MOLT-4) was > 36.4 µM (inactive) and the GI50 (786-0) was > 34.6 µM (inactive). The GI50 (NCI-H23) was 16.4 µM (inactive), the GI50 (RXF 393) was 34 µM (inactive) and the GI50 (DU-145) was > 38.7 µM (inactive). For the same molecule, the GI50 (KM12) was > 33.3 µM (inactive), the GI50 (LOX IMVI) was > 36.3 µM (inactive) and the GI50 (HCT-116) was > 36.9 µM (inactive). The GI50 (IGROV-1) was 18.5 µM (inactive), the GI50 (SF-268) was 38.3 µM (inactive) and the GI50 (SK-OV-3) was > 46.5 µM (inactive).
For `COc1cc2c(cc1OC)-c1cc3ccccc3c(=O)n1CCC2`, the GI50 (A549) was 8.28 µM (inactive), the GI50 (CCRF-CEM) was 6.73 µM (inactive) and the GI50 (OVCAR-5) was 45.7 µM (inactive). The GI50 (HL-60) was 2.58 µM (inactive), the GI50 (Hs-578T) was 14.8 µM (inactive) and the GI50 (NCI-H226) was 12.6 µM (inactive). For the same molecule, the GI50 (HT-29) was 4.17 µM (inactive), the GI50 (RPMI-8226) was 7.91 µM (inactive) and the GI50 (MOLT-4) was 1.89 µM (inactive). The GI50 (786-0) was 6.97 µM (inactive), the GI50 (NCI-H23) was 19.7 µM (inactive) and the GI50 (RXF 393) was 5.02 µM (inactive). The GI50 (DU-145) was 10.7 µM (inactive), the GI50 (KM12) was 8.47 µM (inactive) and the GI50 (LOX IMVI) was 2.66 µM (inactive). The GI50 (HCT-116) was 3.94 µM (inactive), the GI50 (IGROV-1) was 7.48 µM (inactive) and the GI50 (SF-268) was 13.3 µM (inactive). The GI50 (SK-OV-3) was 7.31 µM (inactive).
For `COc1ccc(NC(=O)/C(CC2=Nc3ccc([N+](=O)[O-])cc3NC2O)=N\NC(=O)C[N+](C)(C)C)c(OC)c1` (centres undefined), the GI50 (A549) was 40.5 µM (inactive), the GI50 (CCRF-CEM) was 40.3 µM (inactive) and the GI50 (OVCAR-5) was > 100 µM (inactive). For the same molecule, the GI50 (SR) was 18.4 µM (inactive), the GI50 (HL-60) was > 100 µM (inactive) and the GI50 (Hs-578T) was > 100 µM (inactive). The GI50 (NCI-H226) was > 100 µM (inactive), the GI50 (HT-29) was > 100 µM (inactive) and the GI50 (MOLT-4) was > 100 µM (inactive). The GI50 (786-0) was 30.1 µM (inactive), the GI50 (NCI-H23) was 84.3 µM (inactive) and the GI50 (RXF 393) was 21.6 µM (inactive). For the same molecule, the GI50 (DU-145) was 47.3 µM (inactive), the GI50 (KM12) was 89.7 µM (inactive) and the GI50 (LOX IMVI) was 62.1 µM (inactive). The GI50 (HCT-116) was 30.4 µM (inactive), the GI50 (IGROV-1) was 80.7 µM (inactive) and the GI50 (SF-268) was > 100 µM (inactive). For the same molecule, the GI50 (SK-OV-3) was 89.9 µM (inactive).
For `O=C1CC(c2ccccc2)n2c(nc3ccccc32)N1` (centres undefined), the GI50 (A549) was > 100 µM (inactive), the GI50 (CCRF-CEM) was > 10 µM (inactive) and the GI50 (OVCAR-5) was > 100 µM (inactive). For the same molecule, the GI50 (SR) was 36.2 µM (inactive), the GI50 (HL-60) was 16.8 µM (inactive) and the GI50 (Hs-578T) was 76.9 µM (inactive). The GI50 (NCI-H226) was > 100 µM (inactive), the GI50 (HT-29) was > 100 µM (inactive) and the GI50 (RPMI-8226) was 27 µM (inactive). For the same molecule, the GI50 (MOLT-4) was 65.8 µM (inactive), the GI50 (786-0) was 74.8 µM (inactive) and the GI50 (NCI-H23) was 64.1 µM (inactive). The GI50 (RXF 393) was 21 µM (inactive), the GI50 (KM12) was > 100 µM (inactive) and the GI50 (LOX IMVI) was 39.4 µM (inactive). The GI50 (HCT-116) was > 100 µM (inactive), the GI50 (IGROV-1) was 47.4 µM (inactive) and the GI50 (SF-268) was > 100 µM (inactive). The GI50 (SK-OV-3) was > 100 µM (inactive).
With `COc1cc2c3cc1Oc1c(OC)c(OC)cc4c1C(Cc1ccc(cc1)Oc1cc(ccc1O)CC3N(C)CC2)N(C)CC4` (centres undefined) the GI50 (A549) was 14.9 µM (inactive) and 8.99 µM (inactive), the GI50 (OVCAR-5) was 18.5 µM (inactive) and 14.8 µM (inactive) and the GI50 (SR) was 2.78 µM (inactive) and 2.06 µM (inactive). For the same molecule, the GI50 (Hs-578T) was 10.8 µM (inactive), the GI50 (NCI-H226) was 16.8 µM (inactive) and 18.9 µM (inactive) and the GI50 (HT-29) was 2.78 µM (inactive) and 5.09 µM (inactive). The GI50 (RPMI-8226) was 6.64 µM (inactive), the GI50 (MOLT-4) was 4.41 µM (inactive) and 5.09 µM (inactive) and the GI50 (NCI-H23) was 12.8 µM (inactive) and 17.1 µM (inactive). For the same molecule, the GI50 (RXF 393) was 1.29 µM (inactive) and 1.09 µM (active), the GI50 (DU-145) was 10.6 µM (inactive) and the GI50 (KM12) was 11.9 µM (inactive) and 11.4 µM (inactive). The GI50 (HCT-116) was 4.6 µM (inactive) and 6.76 µM (inactive), the GI50 (IGROV-1) was 16.7 µM (inactive) and 11.4 µM (inactive) and the GI50 (SF-268) was 14.1 µM (inactive) and 10.8 µM (inactive). For the same molecule, the GI50 (SK-OV-3) was 13.4 µM (inactive) and 25.6 µM (inactive).
For `O=C1Nc2ccccc2/C1=N/NC(=S)Nc1cccc(Cl)c1`, the GI50 (A549) was 7.08 µM (inactive), the GI50 (CCRF-CEM) was 2.75 µM (inactive) and the GI50 (OVCAR-5) was 24.5 µM (inactive). For the same molecule, the GI50 (SR) was 1.73 µM (inactive), the GI50 (HL-60) was 8.87 µM (inactive) and the GI50 (Hs-578T) was 33.4 µM (inactive). The GI50 (NCI-H226) was 18 µM (inactive), the GI50 (HT-29) was 10.1 µM (inactive) and the GI50 (MOLT-4) was 0.614 µM (active). The GI50 (786-0) was 5.12 µM (inactive), the GI50 (NCI-H23) was 6.97 µM (inactive) and the GI50 (RXF 393) was 7.6 µM (inactive). The GI50 (DU-145) was 22.5 µM (inactive), the GI50 (KM12) was 7.26 µM (inactive) and the GI50 (LOX IMVI) was 5.37 µM (inactive). The GI50 (HCT-116) was 3.49 µM (inactive), the GI50 (IGROV-1) was 17.2 µM (inactive) and the GI50 (SF-268) was 4.53 µM (inactive). For the same molecule, the GI50 (SK-OV-3) was 20.7 µM (inactive).
`COC(=O)[C@H](CCSC)NC(=O)N[C@H](C)c1ccccc1` was tested, and the GI50 (A549) was > 100 µM (inactive), the GI50 (CCRF-CEM) was > 100 µM (inactive) and the GI50 (OVCAR-5) was > 100 µM (inactive). The GI50 (SR) was > 100 µM (inactive), the GI50 (HL-60) was > 100 µM (inactive) and the GI50 (Hs-578T) was > 100 µM (inactive). For the same molecule, the GI50 (NCI-H226) was > 100 µM (inactive), the GI50 (HT-29) was > 100 µM (inactive) and the GI50 (RPMI-8226) was > 100 µM (inactive). The GI50 (MOLT-4) was > 100 µM (inactive), the GI50 (786-0) was > 100 µM (inactive) and the GI50 (NCI-H23) was > 100 µM (inactive). For the same molecule, the GI50 (DU-145) was > 100 µM (inactive), the GI50 (KM12) was > 100 µM (inactive) and the GI50 (LOX IMVI) was > 100 µM (inactive). For the same molecule, the GI50 (HCT-116) was > 100 µM (inactive), the GI50 (IGROV-1) was > 100 µM (inactive) and the GI50 (SF-268) was > 100 µM (inactive). For the same molecule, the GI50 (SK-OV-3) was > 100 µM (inactive).
